From publication PMC9645390, “Amphiphilic stilbene derivatives attenuate the neurotoxicity of soluble Aβ42 oligomers by controlling their interactions with cell membranes” (Chemical Science, 2022)

Tests used:
[1] = system: Aβ oligomers–SH-SY5Y cell membrane interactions; test: Confocal imaging of Aβ oligomers binding to SH-SY5Y cell membranes; type: cell-based, human; details: 5 μM Aβ oligomers + 5 μM compound, 24 h; for Aβ oligomers bound to cell membranes (in words): CF594-HJ 3.4 staining
Description: (§1) Encouraged by the ability of the developed amphiphilic compounds to attenuate the neurotoxicity of Cu–Aβ species, we sought out to study the possible molecular mechanisms for this beneficial effect. The Aβ oligomers were reported to interact with cell membranes in various ways, such as binding to receptors on cell membranes,[49,50] inserting into membranes,[51] or even showing cellular uptake via endocytosis.[52] The abnormal interactions between Aβ oligomers and neuron cells, which could disrupt the neuronal ion homeostasis and neuron cell membrane integrity, might be why Aβ oligomers are highly neurotoxic.[53–55] Moreover, molecules that can disrupt interactions between oligomers and cell membranes are promising candidates for drug development.[56,57] Thus, we proceeded to probe the interactions of the Aβ42 oligomers with SH-SY5Y cellular membranes, in the absence and presence of the compounds, via confocal microscopy. […] Moreover, a lower concentration of Aβ42 (5 μM) or Aβ42–Cu (5 μM) were chosen to avoid significant cell death (Fig. S9b ^†). Before investigating the neuroprotective effect of our compounds, we have also confirmed that Aβ aggregates interact tightly with the cell membranes, as shown via co-staining with a membrane specific dye (Fig. S10 ^†). […]
Fig. 10 (a) SH-SY5Y cells were treated with 5 μM Aβ oligomers in the presence or absence of 5 μM ZY-15-MT or 5 μM ZY-15-OMe for 24 h before imaging. Red and blue fluorescence indicate the Aβ oligomers and nuclei, respectively. […] (b) Three independent experiments were subjected for the statistical analysis and analyzed by one-way ANOVA (*P < 0.05, ***P < 0.001).
(§2) RCSB database and optimized by minimal minimization with the OPLS3 force field using the Protein Preparation Wizard program. […] The calculated poses were ranked by both the docking score and Glide e-model energy, and the structures with the best docking scores and Glide e-model energies were rendered in […]

[2] = system: Aβ fibrils–SH-SY5Y cell membrane interactions; test: Confocal imaging of Aβ fibrils binding to SH-SY5Y cell membranes; type: cell-based, human; details: 5 µM fibrils + 5 µM compound, 24 h
Description: as §1, with “^†).” for “^†). Before investigating the neuroprotective effect of our compounds, we have also confirmed that Aβ aggregates interact tightly with the cell membranes, as shown via co-staining with a membrane specific dye (Fig. S10 ^†).”
as §2

[3] = molecular target: T1, human serum albumin (HSA) (Homo sapiens, UniProt P02768); test: Fluorescence turn-on with human serum albumin (selectivity); type: binding; details: compound 5 µM, HSA 1 mg/mL, Aβ42 fibrils 25 µM for comparison
T1 construct: purchased
Description: To investigate whether these amphiphilic compounds can interact with different Aβ species, we recorded the fluorescence intensity changes in the absence and presence of Aβ42 fibrils and oligomers, respectively, which were prepared as previously reported.[28] […] The enhanced fluorescence intensity and blue shift are possibly due to the restriction in a rotation of the aromatic rings and the changes of hydrophobicity at the Aβ binding sites. […] Comparing the ZY-17 series with the other series of compounds, we believe that the thiophene ring in the stilbene-like binding scaffold is essential for the selectively toward Aβ species, while the more hydrophobic tri-benzene rings might lead to unspecific binding to other proteins; such a design principle will be key for the development of second-generation compounds with increased Aβ-binding selectivity.
Figure S4. Fluorescence turn-on effects of amphiphilic compounds with HAS; [compound] = 5 µM, [Aβ42 fibrils] = […]

T1 sequence (P02768 25-609): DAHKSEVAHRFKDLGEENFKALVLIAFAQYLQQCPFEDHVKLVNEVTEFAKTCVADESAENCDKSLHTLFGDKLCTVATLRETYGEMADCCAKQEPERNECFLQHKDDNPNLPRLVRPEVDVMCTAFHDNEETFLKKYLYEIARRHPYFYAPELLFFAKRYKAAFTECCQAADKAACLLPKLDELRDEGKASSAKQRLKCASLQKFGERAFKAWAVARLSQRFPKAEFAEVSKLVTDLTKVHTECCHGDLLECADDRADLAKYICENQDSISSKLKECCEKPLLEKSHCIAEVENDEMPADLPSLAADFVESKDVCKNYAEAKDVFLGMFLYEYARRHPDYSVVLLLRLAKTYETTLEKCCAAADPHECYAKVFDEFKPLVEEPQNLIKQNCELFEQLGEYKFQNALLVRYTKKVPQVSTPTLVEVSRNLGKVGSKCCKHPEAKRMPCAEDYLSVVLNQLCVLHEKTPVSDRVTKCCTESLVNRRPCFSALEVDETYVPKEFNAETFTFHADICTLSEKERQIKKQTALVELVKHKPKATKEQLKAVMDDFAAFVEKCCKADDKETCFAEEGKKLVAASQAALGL

COc1cc(/C=C/c2ccc(-c3ccc(C=O)cc3)s2)cc(CN2CCN(C)CCN(C)CC2)c1O [ZY-15-OMe]
Aβ oligomers bound to cell membranes (in words) [1]: fewer numbers of Aβ oligomers bound to the cell membranes | Aβ fibrils binding to cell membranes (in words) [2]: not able to significantly decrease the numbers of the Aβ fibrils binding to cell membranes

COc1cc(OC)cc(-c2ccc(/C=C/c3cc(CN4CCN(C)CCN(C)CC4)c(O)c(CN4CCN(C)CCN(C)CC4)c3)cc2)c1 [ZY-17-DT]
fluorescence turn-on in the presence of HSA (in words) [3]: even higher fluorescence intensity increase in the presence of HSA than for Aβ42 fibrils

CN1CCN(C)CCN(Cc2cc(/C=C/c3ccc(-c4ccc(C=O)cc4)s3)ccc2O)CC1 [ZY-15-MT]
decrease of the numbers of Aβ oligomers binding to the cell membranes [1]: about 50% | Aβ oligomers bound to cell membranes (in words) [1]: fewer numbers of Aβ oligomers bound to the cell membranes | Aβ fibrils binding to cell membranes (in words) [2]: not able to significantly decrease the numbers of the Aβ fibrils binding to cell membranes

COc1cc(OC)cc(-c2ccc(/C=C/c3cc(CN4CCN(C)CCN(C)CC4)c(O)c(OC)c3)cc2)c1 [ZY-17-OMe]
fluorescence turn-on in the presence of HSA (in words) [3]: even higher fluorescence intensity increase in the presence of HSA than for Aβ42 fibrils
